From patent US12331022B2, “Spiropiperidine allosteric modulators of nicotinic acetylcholine receptors” (Merck Sharp & Dohme LLC, priority 2019, dated 2025) come the findings set out here.

Where two headings read alike, the source gives them in different places.

In this assay the target is T1, human α7 nAChR (Homo sapiens, UniProt P36544).
T1 construct: host or cells: HEK
The assay can be described thus: Automated patch-clamp electrophysiology functional assay (Assay A). It is filed as cell-based. The conditions noted are these: HEK cell line stably expressing human RIC-3 and human α7, IonFlux HT whole-cell population patch, with or without 40 μM acetylcholine. The protocol: The α7 nAChR positive allosteric modulator (PAM) activity of the present compounds may be tested using assays known in the art. The α7 nAChR PAMs described herein have activities in an automated patch-clamp electrophysiology functional assay as described in the examples. The assay was performed using the IonFlux HT in a whole-cell, population patch configuration. See Golden et al. Assay Drug Dev. Technol. (2011) 9:608-619. The compounds were assessed for their ability to modulate the function of the human α7 nAChR stably expressed in a HEK cell line both in the presence, and in the absence of the natural α7 agonist acetylcholine. By performing a series of such measurements at different concentrations, the effective concentration of the α7 nAChR PAMs (EC50) was determined. See Spencer et al. Assay Drug Dev. Technol. (2012) 10:313-324.
Direct activation of α7 (agonism), and potentiation of acetylcholine-evoked α7 currents was determined as follows:
Automated patch-clamp electrophysiology was performed using the IonFlux HT (Fluxion Biosciences Inc., San Francisco, CA) in the whole-cell, population patch configuration. Test compounds were assessed for their ability to modulate the function of the α7 nicotinic acetylcholine receptor both in the presence, and in the absence of the natural α7 agonist acetylcholine. A HEK cell line stably expressing both human RIC-3 and human α7 (PrecisION hnAChR α7/RIC-3, Eurofins Pharma, St. Charles, MO) was cultured in 175 cm^2 triple-layer tissue culture flasks to no more than 90% confluency in DMEM/F-12 growth media supplemented with 10% heat-inactivated fetal bovine serum, 1% non-essential amino acids, 0.625 μg/mL Puromycin, and 400 μg/mL Geneticin. Immediately prior to assay, cells were detached by first aspirating growth media, rinsing with Dulbecco's phosphate buffered saline, and then adding 10 mL of Accutase (Innovative Cell Technologies, San Diego, CA) to the flask and then incubating at 37° C. for 5 minutes. Detached cells were then recovered by the addition of 40 mL of CHO-serum-free media supplemented with 25 mM HEPES, and rocked gently in a 50 mL conical tube for 20 minutes prior to patch-clamp assay. After recovery, cells were pelleted by centrifugation at 1,000 RPM for 1 minute in a compact bench top centrifuge; recovery media was aspirated and cells were resuspended in external recording solution (150 mM NaCl, 5 mM KCl, 2 mM CaCl2, 1 mM MgCl2, 10 mM HEPES, 12 mM dextrose) to a density of 5.0×10^6 cells/mL. The cell suspension was added to the cell inlet wells on an IonFlux HT population patch plate which had previously been rinsed and primed with deionized H2O. Test compounds were serially diluted in DMSO and then resuspended to the final test concentration in external recording solution, with, or without 40 μM acetylcholine added to the external recording solution; test compounds were then transferred to the IonFlux HT population patch plate. Internal recording solution (110 mM TrisPO4, 28 mM TrisBase, 0.1 mM CaCl2, 2 mM MgCl2, 11 mM EGTA, 4 mM MgATP) was added to the internal recording solution inlet wells on the IonFlux HT patch plate previously loaded with cells and test compounds, and the plate loaded into the IonFlux HT instrument. A protocol was executed on the IonFlux HT to trap the cells, break into the cells, and establish the whole-cell recording configuration; cells were voltage-clamped at a holding potential of −60 mV for the duration of the experiment, all experiments were conducted at room temperature, and the IonFlux HT injection pressure was 8 psi for solution applications. Upon establishing the whole-cell configuration, external recording solution was perfused into the recording chambers for 120 seconds and then 40 μM acetylcholine was applied for 1 second and immediately washed off with external recording solution for 60 seconds. […]

T1 sequence (P36544 23-502): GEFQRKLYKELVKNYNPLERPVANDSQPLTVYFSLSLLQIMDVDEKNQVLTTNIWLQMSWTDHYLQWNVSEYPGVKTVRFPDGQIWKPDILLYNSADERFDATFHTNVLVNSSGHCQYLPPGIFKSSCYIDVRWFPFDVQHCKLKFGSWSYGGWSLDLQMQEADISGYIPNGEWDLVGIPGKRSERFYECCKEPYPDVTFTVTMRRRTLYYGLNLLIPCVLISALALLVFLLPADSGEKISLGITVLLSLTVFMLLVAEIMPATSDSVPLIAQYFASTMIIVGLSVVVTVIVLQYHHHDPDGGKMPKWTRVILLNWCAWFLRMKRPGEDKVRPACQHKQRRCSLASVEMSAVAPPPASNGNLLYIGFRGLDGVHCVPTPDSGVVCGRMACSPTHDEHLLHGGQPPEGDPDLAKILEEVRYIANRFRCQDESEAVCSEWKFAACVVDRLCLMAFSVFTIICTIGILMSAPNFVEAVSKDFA

As for `COc1ccc(F)c(OCC2CC23CCN(S(N)(=O)=O)CC3)c1` (racemic) [Example A26, 1-[(2-fluoro-5-methoxyphenoxy)methyl]-6-azaspiro[2.5]octane-6-sulfonamide], the EC50 runs as follows: (read-out: α7 nAChR EC50) 650 nM; (read-out: α7 nAChR Potency) 500 to 5000 nM.

With `COc1cccc(OC[C@@H]2CC23CCN(S(N)(=O)=O)CC3)n1` [Example A51, (1R)-1-{[(6-methoxypyridin-2-yl)oxy]methyl}-6-azaspiro[2.5]octane-6-sulfonamide], the EC50 by setting is: (read-out: α7 nAChR EC50) 570 nM; (read-out: α7 nAChR Potency) 500 to 5000 nM.

For the compound `COc1ccc(Cl)cc1NC(=O)[C@@H]1C(F)(F)C12CCN(S(N)(=O)=O)CC2` [Example 15, (1R)—N-(5-Chloro-2-methoxyphenyl)-2,2-difluoro-6-sulfamoyl-6-azaspiro[2.5]octane-1-carboxamide], the EC50 runs as follows: (read-out: α7 nAChR EC50) 63 nM; (read-out: α7 nAChR Potency) at most 100 nM.

Regarding `Cc1ccc(C)c(NC[C@@H]2C(F)(F)C23CCN(S(N)(=O)=O)CC3)c1` [Example A60, (2R)-2-{[(2,5-dimethylphenyl)amino]methyl}-1,1-difluoro-6-azaspiro[2.5]octane-6-sulfonamide], the EC50 is, setting by setting: (read-out: α7 nAChR EC50) 11 nM; (read-out: α7 nAChR Potency) at most 100 nM. In the same order, the values of `COc1ccc(Cl)cc1OCC1C(F)(F)C12CCN(S(N)(=O)=O)CC2` (single isomer, unassigned) [Example A2, 2-[(5-chloro-2-methoxyphenoxy)methyl]-1,1-difluoro-6-azaspiro[2.5]octane-6-sulfonamide] are 25 nM and at most 100 nM. In the same order, the values of `NS(=O)(=O)N1CCC2(CC1)CC2COc1ccccc1OC(F)F` (single isomer, unassigned) [Example A9, 1-{[2-(difluoromethoxy)phenoxy]methyl}-6-azaspiro[2.5]octane-6-sulfonamide] are 650 nM and 500 to 5000 nM. On the same counts, the results for `Cn1nc(C(F)(F)F)cc1OCC1C(F)(F)C12CCN(S(N)(=O)=O)CC2` (single isomer, unassigned) [Example A11, 1,1-difluoro-2-({[1-methyl-3-(trifluoromethyl)-1H-pyrazol-5-yl]oxy}methyl)-6-azaspiro[2.5]octane-6-sulfonamide] are 90 nM and at most 100 nM. `CC(C)(C)c1cccc(OC[C@@H]2CC23CCN(S(N)(=O)=O)CC3)n1` [Example A55, (1R)-1-{[(6-tert-butylpyridin-2-yl)oxy]methyl}-6-azaspiro[2.5]octane-6-sulfonamide]: under “read-out: α7 nAChR Potency”, the EC50 is 500 to 5000 nM.

On to `NS(=O)(=O)N1CCC2(CC1)C[C@H]2COc1noc(-c2ccccc2)n1` [Example 4, (1R)-1-{[(5-Phenyl-1,2,4-oxadiazol-3-yl)oxy]methyl}-6-azaspiro[2.5]octane-6-sulfonamide], for which the EC50 was 580 nM (read-out: α7 nAChR EC50) and 500 to 5000 nM (read-out: α7 nAChR Potency). In the same order, the values of `NS(=O)(=O)N1CCC2(CC1)C(COc1cccc(OCC(F)(F)F)n1)C2(F)F` (single isomer, unassigned) [Example A40, 1,1-difluoro-2-({[6-(2,2,2-trifluoroethoxy)pyridin-2-yl]oxy}methyl)-6-azaspiro[2.5]octane-6-sulfonamide] are 19 nM and at most 100 nM. On the same counts, the results for `COc1ccc(Cl)cc1NC(=O)[C@@H]1CC12CCN(S(N)(=O)=O)CC2` [Example 13, (1R)—N-(5-Chloro-2-methoxyphenyl)-6-sulfamoyl-6-azaspiro[2.5]octane-1-carboxamide] are 200 nM and 100 to 500 nM. In the same order, the values of `Cc1cccc(OC[C@@H]2CC23CCN(S(N)(=O)=O)CC3)n1` [Example A48, (1R)-1-{[(6-methylpyridin-2-yl)oxy]methyl}-6-azaspiro[2.5]octane-6-sulfonamide] are 1700 nM and 500 to 5000 nM. For `NS(=O)(=O)N1CCC2(CC1)C(CSc1nnnn1-c1ccccc1)C2(F)F` (single isomer, unassigned) [Example A61, 1,1-difluoro-2-{[(1-phenyl-1H-tetrazol-5-yl)sulfanyl]methyl}-6-azaspiro[2.5]octane-6-sulfonamide], the EC50 was 1300 nM (read-out: α7 nAChR EC50) and 500 to 5000 nM (read-out: α7 nAChR Potency). In the same order, the values of `N#Cc1cccc(OC[C@@H]2CC23CCN(S(N)(=O)=O)CC3)n1` [Example A47, (1R)-1-{[(6-cyanopyridin-2-yl)oxy]methyl}-6-azaspiro[2.5]octane-6-sulfonamide] are 1100 nM and 500 to 5000 nM. Turning to `NS(=O)(=O)N1CCC2(CC1)C(COc1cccc(OC(F)F)c1)C2(F)F` (single isomer, unassigned) [Example A29, 2-{[3-(difluoromethoxy)phenoxy]methyl}-1,1-difluoro-6-azaspiro[2.5]octane-6-sulfonamide], the EC50 reads like this: (read-out: α7 nAChR EC50) 310 nM; (read-out: α7 nAChR Potency) 100 to 500 nM. On the same counts, the results for `COc1ccc(Cl)cc1SC[C@@H]1CC12CCN(S(N)(=O)=O)CC2` [Example 11, (1R)-1-{[(5-Chloro-2-methoxyphenyl)sulfanyl]methyl}-6-azaspiro[2.5]octane-6-sulfonamide] are 52 nM and at most 100 nM. On the same counts, the results for `NS(=O)(=O)N1CCC2(CC1)CC2CSc1ccc(C(F)(F)F)cc1` (racemic) [Example A43, 1-({[4-(trifluoromethyl)phenyl]sulfanyl}methyl)-6-azaspiro[2.5]octane-6-sulfonamide] are 1400 nM and 500 to 5000 nM. In the case of `NS(=O)(=O)N1CCC2(CC1)C(COc1cccc(OC(F)F)c1)C2(F)F` (single isomer, unassigned) [Example A28, 2-{[3-(difluoromethoxy)phenoxy]methyl}-1,1-difluoro-6-azaspiro[2.5]octane-6-sulfonamide], the EC50 is 37 nM (read-out: α7 nAChR EC50) and at most 100 nM (read-out: α7 nAChR Potency).

For the compound `NS(=O)(=O)N1CCC2(CC1)C[C@H]2COc1cccc(-c2ccccc2)n1` [Example A57, (1R)-1-{[(6-phenylpyridin-2-yl)oxy]methyl}-6-azaspiro[2.5]octane-6-sulfonamide], the EC50 is 69 nM (read-out: α7 nAChR EC50) and at most 100 nM (read-out: α7 nAChR Potency).

On to `CS(=O)(=O)c1cccc(OC[C@@H]2CC23CCN(S(N)(=O)=O)CC3)n1` [Example A45, (1R)-1-({[6-(methylsulfonyl)pyridin-2-yl]oxy}methyl)-6-azaspiro[2.5]octane-6-sulfonamide], for which the EC50 (read-out: α7 nAChR Potency) lay in the range of 5000 to 50000 nM. With `NS(=O)(=O)N1CCC2(CC1)C[C@@H]2COc1cccc(OC(F)(F)F)c1` [Example A25, (1S)-1-{[3-(trifluoromethoxy)phenoxy]methyl}-6-azaspiro[2.5]octane-6-sulfonamide], the EC50 is, setting by setting: (read-out: α7 nAChR EC50) 1900 nM; (read-out: α7 nAChR Potency) 500 to 5000 nM. Regarding `NS(=O)(=O)N1CCC2(CC1)C(CCc1ccc(F)cc1C(F)(F)F)C2(F)F` (stereo not drawn) [Example 18, 1,1-Difluoro-2-{2-[4-fluoro-2-(trifluoromethyl)phenyl]ethyl}-6-azaspiro[2.5]octane-6-sulfonamide], the EC50 (read-out: α7 nAChR Potency) fell in the range of 5000 to 50000 nM. Take `NS(=O)(=O)N1CCC2(CC1)C[C@H]2COc1cccc(C2CC2)n1` [Example A49]: the EC50 (read-out: α7 nAChR EC50) came to 280 nM and the EC50 (read-out: α7 nAChR Potency) lay in the range of 100 to 500 nM. In the same order, the values of `NS(=O)(=O)N1CCC2(CC1)CC2COc1ccnc(OC(F)F)c1` (stereo not drawn) [Example 1, 1-({[2-(Difluoromethoxy)pyridin-4-yl]oxy}methyl)-6-azaspiro[2.5]octane-6-sulfonamide] are 730 nM and 500 to 5000 nM.
